Key:
[1] = target: T1, CDK2/Cyclin A (Homo sapiens, UniProt P24941); experiment: Enzymatic assay for CDK2 (LANCE Ultra kinase assay, FRET based); type: biochemical; conditions: ATP at Km
T1 construct: purchased Invitrogen PV6290
In short: (§1)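 TR-FRET kinase assay at ATP Km with ULight-MBP peptide (68 nM) and Eu-anti-phospho-MBP antibody; CDK2/Cyclin A at […], CDK5/p25 at […]. 8-dose 4-fold compound dilutions; 60 min kinase reaction at 23° C., EDTA stop, 60 min detection, read at 615/665 nm.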

[2] = system: MV4-11; experiment: Cellular MV4-11 viability assay (CellTiter-Glo, 72 hours); type: cell-based; conditions: Homo sapiens; MV4-11 cells
Description: Human […] cell line, MV4-11_(ATCC, Cat #CRL-9591), NSCLC (Non-small cell lung cancer) cell line H460 (ATCC, Cat #HTB-177), A2780 (ECACC, Cat #93112519) and OVCAR-3(ATCC, Cat #HTB-161) were obtained from ATCC. Cells were grown in RPMI-1640 media (Invitrogen, Cat #22400-089) supplemented with 10% FBS (Invitrogen, Cat #10099141) and 1% penicillin/streptomycin (Invitrogen, Cat #15070063) and cultured at 37° C., 5% CO2 in a humidified chamber. All cell lines were routinely tested for mycoplasma.
To effect of the CDK7 inhibitor to inhibit the growth of target cancer cells, viability assay were conducted a 72 hour time period. Briefly, the candidate cell line was plated in 96 well plate at the following density of cells respectively. 1×10^4 cells/well for MV4-11, 5×10^3 for H460 and OVCAR-3, and 1×10^3 for A2780. After 24 hours, the cells were treated with various concentrations of the compound (ranging from 0.0015 uM to 10 uM). DMSO solvent without compound served as a control and final DMSO concentration lest than 0.1%. After 72 hours of incubation at 37° C., 5% CO2 incubator, cells were analyzed for the viability using the CellTiter-Glo Luminescent Cell Viability Assay (Promega, Cat #G7570). All viability assays were performed in duplicate and Luminescence was read using an Envision (Perkin Elmer, USA). Data was analyzed using XLfit software.

[3] = system: OVCAR-3; experiment: OVCAR-3 viability assay (CellTiter-Glo, 72 hours); type: cell-based; conditions: Homo sapiens; OVCAR-3 cells
In short: (§2)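 Cells grown in RPMI-1640 with 10% FBS were seeded at 1×10^4/well (MV4-11), 5×10^3 (OVCAR-3) or 1×10^3 (A2780), then dosed 24 h later with compound at 0.0015 uM to 10 uM, DMSO <0.1%. Viability was read by CellTiter-Glo luminescence after 72 h at 37° C, in duplicate.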

[4] = system: A2780; experiment: A2780 viability assay (CellTiter-Glo, 72 hours); type: cell-based; conditions: Homo sapiens; A2780 cells
In short: as §2

[5] = target: T2, CDK1/Cyclin B (Homo sapiens, UniProt P06493); experiment: Enzymatic assay for CDK1 (LANCE Ultra kinase assay, FRET based); type: biochemical; conditions: ATP at Km; read-out: CDK1 enzymatic activity IC50
T2 construct: purchased Invitrogen PR4768C
T2 sequence (P06493 whole entry): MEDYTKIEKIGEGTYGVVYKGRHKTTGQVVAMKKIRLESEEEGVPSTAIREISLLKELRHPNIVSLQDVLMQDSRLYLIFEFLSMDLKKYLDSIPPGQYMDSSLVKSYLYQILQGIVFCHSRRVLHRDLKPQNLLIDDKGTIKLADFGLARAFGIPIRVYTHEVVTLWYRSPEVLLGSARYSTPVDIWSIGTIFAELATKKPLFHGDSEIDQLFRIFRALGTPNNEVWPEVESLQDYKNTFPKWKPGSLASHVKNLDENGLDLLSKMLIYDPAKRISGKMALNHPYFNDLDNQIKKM
T2 sequence (P14635 whole entry partner): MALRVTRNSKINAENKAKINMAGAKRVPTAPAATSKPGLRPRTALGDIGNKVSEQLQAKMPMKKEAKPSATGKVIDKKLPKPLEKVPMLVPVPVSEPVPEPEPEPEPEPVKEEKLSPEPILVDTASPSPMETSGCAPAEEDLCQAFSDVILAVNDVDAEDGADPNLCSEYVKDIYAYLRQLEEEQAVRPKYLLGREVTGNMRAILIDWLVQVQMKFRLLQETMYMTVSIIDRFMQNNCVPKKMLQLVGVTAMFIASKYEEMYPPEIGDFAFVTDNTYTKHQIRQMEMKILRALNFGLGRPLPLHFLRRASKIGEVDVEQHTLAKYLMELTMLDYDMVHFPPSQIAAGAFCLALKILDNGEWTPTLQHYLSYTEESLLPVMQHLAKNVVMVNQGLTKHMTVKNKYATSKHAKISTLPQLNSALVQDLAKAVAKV
In short: (§3)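 Inhibition of purified CDK/cyclin complexes was measured with ATP at its Km, using a ULight-labeled peptide substrate. Substrate phosphorylation was detected by FRET with a Europium-labeled anti-phospho-antibody.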

[6] = target: T3, CDK5/p25 (Homo sapiens, UniProt Q00535); experiment: Enzymatic assay for CDK5 (LANCE Ultra kinase assay, FRET based); type: biochemical; conditions: ATP at Km
T3 construct: purchased Invitrogen PR8543B
T3 sequence (Q00535 whole entry): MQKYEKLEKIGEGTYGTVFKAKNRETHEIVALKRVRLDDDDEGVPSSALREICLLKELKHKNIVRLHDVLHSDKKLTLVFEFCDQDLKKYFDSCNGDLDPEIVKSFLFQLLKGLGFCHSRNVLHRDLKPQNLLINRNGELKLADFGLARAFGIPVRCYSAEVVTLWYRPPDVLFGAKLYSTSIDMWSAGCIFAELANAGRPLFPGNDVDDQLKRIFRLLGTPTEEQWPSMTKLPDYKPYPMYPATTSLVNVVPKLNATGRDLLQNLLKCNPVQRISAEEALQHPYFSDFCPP
T3 sequence (Q15078 99-307 partner limits assumed): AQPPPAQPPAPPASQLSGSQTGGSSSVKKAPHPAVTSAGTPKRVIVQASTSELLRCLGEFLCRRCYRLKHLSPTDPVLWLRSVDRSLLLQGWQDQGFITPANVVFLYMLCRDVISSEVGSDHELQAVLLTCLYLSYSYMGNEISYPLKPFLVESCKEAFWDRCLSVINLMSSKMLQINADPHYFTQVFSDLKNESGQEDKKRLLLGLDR
In short: as §1

[7] = target: T4, CDK7/Cyclin H/MNAT1 (Homo sapiens, UniProt P50613); experiment: Enzymatic assay for CDK7 (LANCE Ultra kinase assay, FRET based); type: biochemical; conditions: for IC50: ATP at Km
T4 construct: purchased Invitrogen PR6749B
T4 sequence (P50613 whole entry): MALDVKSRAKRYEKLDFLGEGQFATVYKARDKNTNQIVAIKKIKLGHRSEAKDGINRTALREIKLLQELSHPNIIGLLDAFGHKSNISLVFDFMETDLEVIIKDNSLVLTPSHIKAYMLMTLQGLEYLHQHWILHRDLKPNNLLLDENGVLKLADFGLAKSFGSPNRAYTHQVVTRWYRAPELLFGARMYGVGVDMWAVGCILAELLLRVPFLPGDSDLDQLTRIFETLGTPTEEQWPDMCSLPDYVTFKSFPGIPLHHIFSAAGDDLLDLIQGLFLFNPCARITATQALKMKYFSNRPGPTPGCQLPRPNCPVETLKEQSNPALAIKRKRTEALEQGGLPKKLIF
T4 sequence (P51946 whole entry partner): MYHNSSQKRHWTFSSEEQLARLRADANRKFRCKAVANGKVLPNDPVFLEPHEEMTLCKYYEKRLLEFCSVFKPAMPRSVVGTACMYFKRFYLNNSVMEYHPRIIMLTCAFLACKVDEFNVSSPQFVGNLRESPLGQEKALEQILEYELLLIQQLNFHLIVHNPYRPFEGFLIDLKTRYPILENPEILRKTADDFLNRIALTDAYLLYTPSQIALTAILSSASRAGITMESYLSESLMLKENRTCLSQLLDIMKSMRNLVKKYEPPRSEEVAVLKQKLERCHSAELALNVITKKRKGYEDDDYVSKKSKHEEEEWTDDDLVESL
T4 sequence (P51948 whole entry partner): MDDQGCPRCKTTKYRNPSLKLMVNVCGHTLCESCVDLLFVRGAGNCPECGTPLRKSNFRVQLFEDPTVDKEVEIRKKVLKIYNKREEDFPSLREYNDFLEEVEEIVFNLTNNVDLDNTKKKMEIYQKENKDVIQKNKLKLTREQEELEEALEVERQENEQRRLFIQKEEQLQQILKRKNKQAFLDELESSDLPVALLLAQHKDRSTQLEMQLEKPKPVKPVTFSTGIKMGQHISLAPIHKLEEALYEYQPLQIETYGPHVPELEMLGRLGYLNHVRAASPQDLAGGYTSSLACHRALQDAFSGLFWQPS
In short: as §3

Row | SMILES | IC50 [1] [nM] | IC50 [2] [nM] | IC50 [3] [nM] | IC50 [4] [nM] | IC50 [5] [nM] | IC50 [6] [nM] | IC50 [7] [nM] | CDK1/CDK7: Selectivity of CDK7 inhibition over CDK1 inhibition [7] | CDK2/CDK7: Selectivity of CDK7 inhibition over CDK2 inhibition [7] | CDK5/CDK7: Selectivity of CDK7 inhibition over CDK5 inhibition [7]
1 | CC(C)c1cnn2c(NCc3ccccc3-c3nccc4cc(NC(=O)/C=C/CN(C)C)ccc34)nc(N3CCC(O)C3)nc12 (racemic) [Compound 37] | > 1000 | < 1000 | < 1000 | < 1000 | > 1000 | > 1000 | 100 to 1000 | B (B indicates 50 < [fold] ≤ 500) | B (B indicates 50 < [fold] ≤ 500) | B (B indicates 50 < [fold] ≤ 500)
2 | CC(C)c1cnn2c(NCc3ccccc3-c3nccc4cc(NC(=O)/C=C/CN(C)C)ccc34)nc(N3CCCC(O)CC3)nc12 (racemic) [Compound 38] | > 1000 | < 1000 | < 1000 | < 1000 | > 1000 | > 1000 | 100 to 1000 | B (B indicates 50 < [fold] ≤ 500) | B (B indicates 50 < [fold] ≤ 500) | B (B indicates 50 < [fold] ≤ 500)
3 | C/C=C/C(=O)Nc1ccc2c(-c3ccccc3CNc3nc(NCC4CNCCO4)nc4c(C(C)C)cnn34)nccc2c1 (racemic) [Compound 69] | > 1000 | < 1000 | < 1000 | < 1000 | > 1000 | > 1000 | < 100 | B (B indicates 50 < [fold] ≤ 500) | B (B indicates 50 < [fold] ≤ 500) | B (B indicates 50 < [fold] ≤ 500)
4 | CC(C)c1cnn2c(NCc3ccccc3-c3nccc4cc(NC(=O)/C=C/CN(C)C)ccc34)nc(N3CCC(CO)CC3)nc12 [Compound 29] | > 1000 | < 1000 | < 1000 | < 1000 | > 1000 | > 1000 | 100 to 1000 | B (B indicates 50 < [fold] ≤ 500) | B (B indicates 50 < [fold] ≤ 500) | B (B indicates 50 < [fold] ≤ 500)
5 | CC(C)c1cnn2c(NCc3ccccc3-c3nccc4cc(NC(=O)/C=C/CN(C)C)ccc34)nc(N3CCC(O)CC3)nc12 [Compound 31] | > 1000 | < 1000 | < 1000 | < 1000 | > 1000 | > 1000 | < 100 | A (A indicates [fold] > 500) | A (A indicates [fold] > 500) | A (A indicates [fold] > 500)
6 | CNC1CCN(c2nc(NCc3ccccc3-c3nccc4cc(NC(=O)/C=C/CN(C)C)ccc34)n3ncc(C(C)C)c3n2)CC1 [Compound 34] | > 1000 | < 1000 | < 1000 | < 1000 | > 1000 | > 1000 | < 100 | A (A indicates [fold] > 500) | A (A indicates [fold] > 500) | A (A indicates [fold] > 500)
7 | C=CC(=O)Nc1ccc2c(-c3ccccc3CNc3nc(Oc4cccnc4)nc4c(C(C)C)cnn34)nccc2c1 [Compound 182] | > 1000 | – | 1000 to 10000 | < 1000 | > 1000 | > 1000 | 100 to 1000 | B (B indicates 50 < [fold] ≤ 500) | B (B indicates 50 < [fold] ≤ 500) | B (B indicates 50 < [fold] ≤ 500)

Second part, the compound after the results:

Row | IC50 [1] [nM] | IC50 [2] [nM] | IC50 [3] [nM] | IC50 [4] [nM] | IC50 [5] [nM] | IC50 [6] [nM] | IC50 [7] [nM] | CDK1/CDK7: Selectivity of CDK7 inhibition over CDK1 inhibition [7] | CDK2/CDK7: Selectivity of CDK7 inhibition over CDK2 inhibition [7] | CDK5/CDK7: Selectivity of CDK7 inhibition over CDK5 inhibition [7] | SMILES
8 | > 1000 | < 1000 | < 1000 | < 1000 | > 1000 | > 1000 | 100 to 1000 | B (B indicates 50 < [fold] ≤ 500) | B (B indicates 50 < [fold] ≤ 500) | B (B indicates 50 < [fold] ≤ 500) | CC(C)c1cnn2c(NCc3ccccc3-c3nccc4cc(NC(=O)/C=C/CN(C)C)ccc34)nc(NCC3CCNC(=O)C3)nc12 (racemic) [Compound 30]
9 | > 1000 | < 1000 | < 1000 | < 1000 | > 1000 | > 1000 | < 100 | A (A indicates [fold] > 500) | A (A indicates [fold] > 500) | A (A indicates [fold] > 500) | CC(C)c1cnn2c(NCc3ccccc3-c3nccc4cc(NC(=O)/C=C/CN(C)C)ccc34)nc(NCCC3CNCCO3)nc12 (racemic) [Compound 51]
10 | > 1000 | < 1000 | < 1000 | < 1000 | > 1000 | > 1000 | < 100 | A (A indicates [fold] > 500) | A (A indicates [fold] > 500) | A (A indicates [fold] > 500) | CC(C)c1cnn2c(NCc3ccccc3-c3nccc4cc(NC(=O)/C=C/CN(C)C)ccc34)nc(NCC3CNCCO3)nc12 (racemic) [Compound 62]
11 | > 1000 | < 1000 | < 1000 | < 1000 | > 1000 | > 1000 | 100 to 1000 | B (B indicates 50 < [fold] ≤ 500) | B (B indicates 50 < [fold] ≤ 500) | B (B indicates 50 < [fold] ≤ 500) | CC(C)c1cnn2c(NCc3ccccc3-c3nccc4cc(NC(=O)/C=C/CN(C)C)ccc34)nc(NCCCO)nc12 [Compound 28]
12 | > 1000 | < 1000 | < 1000 | < 1000 | > 1000 | > 1000 | < 100 | A (A indicates [fold] > 500) | A (A indicates [fold] > 500) | A (A indicates [fold] > 500) | CC(C)c1cnn2c(NCc3ccccc3-c3nccc4cc(NC(=O)/C=C/CN(C)C)ccc34)nc(N[C@H]3CC[C@H](O)C3)nc12 [Compound 32]
13 | > 1000 | < 1000 | < 1000 | < 1000 | > 1000 | > 1000 | 100 to 1000 | B (B indicates 50 < [fold] ≤ 500) | B (B indicates 50 < [fold] ≤ 500) | B (B indicates 50 < [fold] ≤ 500) | CC(C)c1cnn2c(NCc3ccccc3-c3nccc4cc(NC(=O)/C=C/CN(C)C)ccc34)nc(NC[C@H]3CC[C@H](O)CC3)nc12 [Compound 33]
14 | > 1000 | < 1000 | < 1000 | < 1000 | > 1000 | > 1000 | < 100 | B (B indicates 50 < [fold] ≤ 500) | B (B indicates 50 < [fold] ≤ 500) | B (B indicates 50 < [fold] ≤ 500) | CC(C)c1cnn2c(NCc3ccccc3-c3nccc4cc(NC(=O)/C=C/CN(C)C)ccc34)nc(NCCC(C)(C)O)nc12 [Compound 35]

Reference: patent US12606561B2, “Substituted pyrazolo[1,5-a][1,3,5]triazines as CDK inhibitors” (QURIENT CO., LTD., priority 2018, dated 2026)
